Reference: article PMC9557039 (iScience, 2022)

Target: UGT720-269-1 (Siraitia grosvenorii, UniProt P0DO66)
Settings: 1 mM UDPG, 10 mM MgCl2, 40 °C; crude enzyme in screening assay

UGT720-269-1, sequence (P0DO66 whole entry): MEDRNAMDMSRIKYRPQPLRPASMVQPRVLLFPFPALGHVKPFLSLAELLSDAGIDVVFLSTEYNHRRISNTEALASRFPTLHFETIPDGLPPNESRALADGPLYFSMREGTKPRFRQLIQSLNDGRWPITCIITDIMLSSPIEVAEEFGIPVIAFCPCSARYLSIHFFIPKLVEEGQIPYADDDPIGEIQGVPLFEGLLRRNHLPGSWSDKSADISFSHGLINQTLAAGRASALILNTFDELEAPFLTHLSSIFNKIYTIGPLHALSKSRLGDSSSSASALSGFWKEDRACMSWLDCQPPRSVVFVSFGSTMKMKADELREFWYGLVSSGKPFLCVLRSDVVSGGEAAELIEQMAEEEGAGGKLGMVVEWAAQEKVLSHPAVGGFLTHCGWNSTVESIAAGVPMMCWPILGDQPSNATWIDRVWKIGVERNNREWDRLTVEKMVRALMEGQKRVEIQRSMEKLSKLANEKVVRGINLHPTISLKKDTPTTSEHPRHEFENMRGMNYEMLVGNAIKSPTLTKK

C[C@H](CC[C@@H](O)C(C)(C)O)[C@H]1CC[C@@]2(C)[C@@H]3CC=C4[C@@H](CC[C@H](O)C4(C)C)[C@]3(C)[C@H](O)C[C@]12C [mogrol] was tested, and the HPLC product analysis was “low catalytic property of UGT720-269-1 in the sequential glycosylation of mogrol to IIE”.
